Results on four molecules are retold here after ChEMBL document CHEMBL1201862, “PubChem BioAssay data set” (2004).

The source made the active and inactive calls.

Test [1] is described as follows: inhibitors of firefly luciferase expression or activity, dose response, H4 neuroglioma cells, luminescence (AID 1990). In kind it is functional, cell-based.
The next test can be described thus: cells. The class given is functional, cell-based.
Test [2] deals with BJ. The test is described as follows: cytotoxicity toward BJ-TERT fibroblasts, dose response, cell-based, RAS-independent, luminescence (AID 1933). In kind it is functional. The settings on record: Homo sapiens.
Test [3] can be described thus: inhibitors of SNCA 5'UTR-driven reporter translation, confirmation, H4 neuroglioma cells, luminescence (AID 1988). In kind it is functional, cell-based.
Test [4] in a line: cytotoxicity toward DRD oncogenic fibroblasts, dose response, cell-based, non-viral oncogenic, luminescence (AID 1934). In kind it is functional. Particulars: Homo sapiens.
Test [5] can be described thus: luciferase reporter signal reduction – luminescence, H4-C neuroglioblastoma cells, dose response (AID 2458).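 Further: H4 neuroglioblastoma cells stably carrying a luciferase reporter gene fusion.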 The class given is functional, cell-based. In general terms: A reporter such as luciferase makes a cellular process visible.
Test [6] can be described thus: Luminescence-based dose response cell-based high throughput screening assay for cytotoxic compounds using the IEC-6 intestinal epithelial cell line. [Related pubchem assays: 1858 (Summary AID.), 1825 (Counterscreen.), 1907 (Confirmation screen.)]. The class given is functional.
The test system of test [7] is BJ. The test is described as follows: cells. Particulars: Homo sapiens. The class given is functional, cell-based.
In test [8] the test system is BJ. Description: cytotoxicity toward BJ-TERT-LT-ST fibroblasts, dose response, cell-based, RAS-independent, luminescence (AID 1935).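 Further: BJ fibroblasts immortalized with TERT plus LT and ST oncogenes.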 In kind it is functional. The settings on record: Homo sapiens.
Test [9] in a line: Luminescence Cell-Based Dose Response HTS to Identify Inhibitors of 5'UTR Stem-Loop Driven Prion Protein mRNA Translation in H4 Neuroglioblastoma Cells. [Related pubchem assays: 1827 (Project Summary), 1813 (Primary HTS)]. The class given is functional.
A short description of test [10]: inhibitors of SNCA 5'UTR-driven translation, confirmation, luminescence, H4 neuroglioblastoma cells, dose confirmation (AID 2454).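 Further: H4 neuroglioblastoma cells carrying an alpha-synuclein 5'UTR luciferase reporter; potency for inhibition of the luciferase signal.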 In kind it is functional, cell-based.
In a further test the target is Estrogen receptor beta (Homo sapiens, UniProt Q92731).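 Further: recombinant ER-beta bound to coactivator SRC1 peptide in presence of estradiol agonist; inhibitors block coactivator peptide binding and lower the FRET signal.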
Sequence of Estrogen receptor beta (Q92731 whole entry): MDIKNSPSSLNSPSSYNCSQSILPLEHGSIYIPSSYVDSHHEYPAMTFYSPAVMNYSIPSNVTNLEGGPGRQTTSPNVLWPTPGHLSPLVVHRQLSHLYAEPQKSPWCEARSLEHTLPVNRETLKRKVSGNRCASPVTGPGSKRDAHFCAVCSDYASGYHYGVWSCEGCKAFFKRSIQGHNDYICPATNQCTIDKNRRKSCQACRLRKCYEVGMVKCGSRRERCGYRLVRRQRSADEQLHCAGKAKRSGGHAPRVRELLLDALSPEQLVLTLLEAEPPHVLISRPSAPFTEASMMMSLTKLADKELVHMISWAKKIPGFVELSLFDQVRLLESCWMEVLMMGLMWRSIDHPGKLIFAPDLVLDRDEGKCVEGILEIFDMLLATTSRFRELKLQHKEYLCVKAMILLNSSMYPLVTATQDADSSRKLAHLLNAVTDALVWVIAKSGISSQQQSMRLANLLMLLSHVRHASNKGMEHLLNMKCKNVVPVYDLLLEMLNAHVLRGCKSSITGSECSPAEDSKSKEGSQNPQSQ
The target in test [11] is Peroxisome proliferator-activated receptor gamma/Nuclear receptor coactivator 3 (Homo sapiens, UniProt P37231). The test is described as follows: TR-FRET dose response biochemical High Throughput Screening assay for agonists of the steroid receptor coactivator 3 (SRC-3) recruitment by the peroxisome proliferator-activated receptor gamma (PPAR gamma): non-selective agonists. [Related pubchem assays: 1301 (Confirmation screen.), 1048 (Primary screen.)]. The class given is functional.
Sequence of Peroxisome proliferator-activated receptor gamma/Nuclear receptor coactivator 3 (P37231 whole entry): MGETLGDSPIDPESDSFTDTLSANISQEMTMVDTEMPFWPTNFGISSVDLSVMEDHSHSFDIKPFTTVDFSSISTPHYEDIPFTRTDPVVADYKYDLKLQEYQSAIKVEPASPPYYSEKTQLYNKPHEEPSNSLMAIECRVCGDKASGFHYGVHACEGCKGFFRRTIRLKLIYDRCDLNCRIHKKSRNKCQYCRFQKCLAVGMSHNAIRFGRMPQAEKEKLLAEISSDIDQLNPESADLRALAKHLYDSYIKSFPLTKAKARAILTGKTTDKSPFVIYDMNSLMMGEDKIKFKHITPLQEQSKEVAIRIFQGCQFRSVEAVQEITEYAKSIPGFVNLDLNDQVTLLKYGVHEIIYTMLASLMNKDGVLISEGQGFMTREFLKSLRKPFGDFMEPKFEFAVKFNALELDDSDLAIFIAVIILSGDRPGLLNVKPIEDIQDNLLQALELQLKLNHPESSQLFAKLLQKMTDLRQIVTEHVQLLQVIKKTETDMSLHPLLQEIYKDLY
Sequence of Peroxisome proliferator-activated receptor gamma/Nuclear receptor coactivator 3 (Q9Y6Q9 whole entry, further chain): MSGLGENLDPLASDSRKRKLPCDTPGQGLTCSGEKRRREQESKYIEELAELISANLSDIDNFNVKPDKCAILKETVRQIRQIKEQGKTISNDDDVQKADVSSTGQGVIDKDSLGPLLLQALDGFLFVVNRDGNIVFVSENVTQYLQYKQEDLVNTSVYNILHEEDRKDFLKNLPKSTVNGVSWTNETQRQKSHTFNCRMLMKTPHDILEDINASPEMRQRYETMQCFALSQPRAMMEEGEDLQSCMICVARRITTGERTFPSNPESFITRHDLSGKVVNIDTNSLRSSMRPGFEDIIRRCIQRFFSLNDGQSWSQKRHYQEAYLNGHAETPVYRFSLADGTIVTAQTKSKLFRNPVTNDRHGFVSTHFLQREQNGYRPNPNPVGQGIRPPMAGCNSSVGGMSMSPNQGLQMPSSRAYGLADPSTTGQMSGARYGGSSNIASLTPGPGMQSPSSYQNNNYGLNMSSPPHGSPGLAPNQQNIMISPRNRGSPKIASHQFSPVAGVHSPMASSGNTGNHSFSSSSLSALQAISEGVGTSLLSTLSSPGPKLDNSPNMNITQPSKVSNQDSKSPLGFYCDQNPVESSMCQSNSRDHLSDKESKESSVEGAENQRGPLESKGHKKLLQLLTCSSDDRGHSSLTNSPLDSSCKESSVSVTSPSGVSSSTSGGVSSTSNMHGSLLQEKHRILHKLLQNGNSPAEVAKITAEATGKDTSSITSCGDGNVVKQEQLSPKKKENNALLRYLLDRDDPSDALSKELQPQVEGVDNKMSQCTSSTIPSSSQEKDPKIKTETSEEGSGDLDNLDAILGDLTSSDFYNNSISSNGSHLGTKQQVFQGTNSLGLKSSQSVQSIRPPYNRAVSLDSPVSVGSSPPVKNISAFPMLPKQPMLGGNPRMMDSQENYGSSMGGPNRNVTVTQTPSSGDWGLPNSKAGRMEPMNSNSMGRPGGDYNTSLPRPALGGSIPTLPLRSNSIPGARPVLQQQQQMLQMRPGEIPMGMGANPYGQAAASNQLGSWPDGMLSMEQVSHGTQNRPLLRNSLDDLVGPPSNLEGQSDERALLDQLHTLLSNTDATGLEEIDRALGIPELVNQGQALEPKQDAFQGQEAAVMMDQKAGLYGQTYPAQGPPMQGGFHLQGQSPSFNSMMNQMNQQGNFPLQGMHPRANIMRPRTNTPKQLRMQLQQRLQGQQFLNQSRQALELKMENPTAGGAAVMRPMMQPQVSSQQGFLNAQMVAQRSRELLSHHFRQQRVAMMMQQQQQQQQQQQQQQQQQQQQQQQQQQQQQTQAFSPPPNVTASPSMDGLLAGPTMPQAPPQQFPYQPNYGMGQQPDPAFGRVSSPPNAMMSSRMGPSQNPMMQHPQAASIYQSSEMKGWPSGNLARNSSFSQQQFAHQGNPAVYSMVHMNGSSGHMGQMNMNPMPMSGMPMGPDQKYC

In test [12] the target is Peroxisome proliferator-activated receptor gamma/Nuclear receptor coactivator 1 (Homo sapiens, UniProt P37231). Description: TR-FRET dose response biochemical High Throughput Screening assay for agonists of the steroid receptor coactivator 1 (SRC-1) recruitment by the peroxisome proliferator-activated receptor gamma (PPAR gamma): non-selective agonists. [Related pubchem assays (depositor defined):AID1300, AID1808, AID504735, AID631]. In kind it is protein assay.

Test [13] deals with Peroxisome proliferator-activated receptor gamma/Nuclear receptor coactivator 2 (Homo sapiens, UniProt P37231). The test is described as follows: TR-FRET dose response biochemical High Throughput Screening assay for agonists of the steroid receptor coactivator 2 (SRC-2) recruitment by the peroxisome proliferator-activated receptor gamma (PPAR gamma): non-selective agonists. [Related pubchem assays: 1297, 1032 ]. The class given is functional. (TR-FRET usually uses a lanthanide donor and a delayed reading to cut background.)

A further test addresses Bcl-2-like protein 10 (Homo sapiens, UniProt Q9HD36). The test is described as follows: displacers of TR3 peptide from Bcl-B, primary screen, selectivity assay for Bfl-1 inhibitor project, biochemical, fluorescence polarization, FITC-TR3 peptide (AID 748).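 Further: fluorescence polarization from a fluorescein-labelled TR3 peptide binding purified Bcl-B.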
Test [14] concerns the target Mitogen-activated protein kinase 10 (Homo sapiens, UniProt P53779). The test is described as follows: Dose response biochemical screening assay for inhibitors of c-Jun N-Terminal Kinase 3 (JNK3). [Related pubchem assays: 746 ].
A further test has as its target Troponin, cardiac muscle (Homo sapiens, UniProt P19429+P45379+P63316). The test is described as follows: inhibitors of cardiac thin filament calcium sensitivity, dose response, biochemical, fluorescence, cardiac regulated thin filaments, triplicate IC50 (AID 504742). In kind it is protein-complex assay.
Test [15] addresses Induced myeloid leukemia cell differentiation protein Mcl-1 (Homo sapiens, UniProt Q07820). The class given is functional.
The target of test [16] is Transitional endoplasmic reticulum ATPase (Homo sapiens, UniProt P55072). The test is described as follows: p97 ATPase inhibitors, dose response, biochemical (AID 1534).
In test [17] the target is Transitional endoplasmic reticulum ATPase (Homo sapiens, UniProt P55072, C522A). Description: C522A mutant p97 ATPase inhibitors, dose response, counter-screen for p97 inhibitor project, biochemical, luminescence (AID 1544). On the technique in general: A counterscreen serves to expose hits that act by an unwanted route or on another target.
Sequence of Transitional endoplasmic reticulum ATPase (Homo sapiens, UniProt P55072, C522A) (P55072 2-806 C522A limits assumed): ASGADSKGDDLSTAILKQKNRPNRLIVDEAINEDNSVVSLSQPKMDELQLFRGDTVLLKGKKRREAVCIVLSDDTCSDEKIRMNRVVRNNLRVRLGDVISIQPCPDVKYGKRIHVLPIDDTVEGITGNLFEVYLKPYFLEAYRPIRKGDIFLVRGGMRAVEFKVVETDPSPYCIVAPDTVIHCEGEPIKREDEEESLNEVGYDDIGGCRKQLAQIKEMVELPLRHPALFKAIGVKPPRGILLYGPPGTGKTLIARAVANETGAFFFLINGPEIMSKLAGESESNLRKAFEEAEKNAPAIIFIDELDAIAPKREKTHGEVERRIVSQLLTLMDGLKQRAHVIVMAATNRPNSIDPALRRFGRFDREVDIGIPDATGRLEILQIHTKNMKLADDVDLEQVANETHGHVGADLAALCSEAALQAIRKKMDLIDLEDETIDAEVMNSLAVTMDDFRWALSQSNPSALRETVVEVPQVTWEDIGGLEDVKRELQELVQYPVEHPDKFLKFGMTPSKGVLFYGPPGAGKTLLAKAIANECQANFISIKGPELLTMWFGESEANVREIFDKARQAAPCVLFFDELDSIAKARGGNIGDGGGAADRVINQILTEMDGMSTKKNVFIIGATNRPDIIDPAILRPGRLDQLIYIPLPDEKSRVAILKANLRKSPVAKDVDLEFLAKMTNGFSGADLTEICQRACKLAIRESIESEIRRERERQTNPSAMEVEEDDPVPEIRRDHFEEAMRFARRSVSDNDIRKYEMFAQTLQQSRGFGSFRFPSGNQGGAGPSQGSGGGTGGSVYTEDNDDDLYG
The subject of test [18] is Streptococcus. The test is described as follows: Streptococcus pyogenes growth inhibition counter-screen, dose response, counter-screen for streptokinase expression inhibitor project, luminescence, BacTiter-Glo, strain UMAA2166 (AID 2477). The class given is functional, organism-based.
Test [19] concerns Streptococcus. Description: Luminescence Microorganism-Based Dose Response Follow up to Identify Compounds Cytotoxic to Streptococcus. [Related pubchem assays: 1677 (Project Summary), 1915, 1914, 1902 (Retest at Dose), 1900 (Counter Screen), 1662 (Primary HTS)]. The class given is functional, organism-based.
In test [20] the target is T1, Streptokinase A (Streptococcus pyogenes serotype M1, UniProt P10520).
T1 sequence (P10520 whole entry): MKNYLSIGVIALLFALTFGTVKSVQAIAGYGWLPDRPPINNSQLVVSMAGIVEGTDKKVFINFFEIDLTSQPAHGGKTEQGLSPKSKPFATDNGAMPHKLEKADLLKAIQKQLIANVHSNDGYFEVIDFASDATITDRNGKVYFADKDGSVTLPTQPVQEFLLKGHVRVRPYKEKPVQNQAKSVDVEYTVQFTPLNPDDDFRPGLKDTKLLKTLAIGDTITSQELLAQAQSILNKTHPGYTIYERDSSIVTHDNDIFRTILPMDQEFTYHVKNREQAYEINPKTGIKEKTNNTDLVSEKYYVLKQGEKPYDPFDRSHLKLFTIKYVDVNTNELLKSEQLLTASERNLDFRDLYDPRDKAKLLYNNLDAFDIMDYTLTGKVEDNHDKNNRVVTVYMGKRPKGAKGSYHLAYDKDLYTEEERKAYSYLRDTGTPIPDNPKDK
Description: S. pyogenes streptokinase expression inhibitors, potency, dose response, plasminogen activation absorbance, OD405 (AID 1914).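 Further: secreted streptokinase activity via plasminogen activation per viability signal from cell pellet.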 The class given is functional, Streptococcus pyogenes M1 GAS.

Test [21] concerns Streptococcus sp. 'group A'. The test is described as follows: growth inhibition of control SK(-) GAS strain, dose response, counter-screen for streptokinase expression inhibitor project, luminescence, kanamycin, BacTiterGlo, confirmation (AID 1900). The class given is functional, organism-based.
Test [22] has as its system Streptococcus. The test is described as follows: Group A Streptococcus viability loss, dose response, counter-screen for streptokinase expression inhibitor project, luminescence, BacTiterGlo (AID 1915).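 Further: potency for reduction of bacterial viability or growth.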 In kind it is functional, organism-based.
The target in test [23] is T1, Streptokinase A. The test is described as follows: Absorbance Microorganism-Based Dose Response Follow up to Identify Inhibitors of Streptokinase Expression. [Related pubchem assays: 1677 (Project Summary), 1915, 1914, 1902 (Retest at Dose), 1900 (Counter Screen), 1662 (Primary HTS)]. The class given is functional, Streptococcus pyogenes M1 GAS.
The nature of test [24]: Absorbance Microorganism-Based Dose Response Follow up to Identify Inhibitors of Streptokinase Expression. [Related pubchem assays: 1677 (Project Summary), 1915, 1914, 1902 (Retest at Dose), 1900 (Counter Screen), 1662 (Primary HTS)].

For orientation: EC50 means the midpoint of the concentration-response curve. For orientation: IC50 means the concentration needed to halve the response being measured.

Sequence of Bcl-2-like protein 10 (Q9HD36 whole entry): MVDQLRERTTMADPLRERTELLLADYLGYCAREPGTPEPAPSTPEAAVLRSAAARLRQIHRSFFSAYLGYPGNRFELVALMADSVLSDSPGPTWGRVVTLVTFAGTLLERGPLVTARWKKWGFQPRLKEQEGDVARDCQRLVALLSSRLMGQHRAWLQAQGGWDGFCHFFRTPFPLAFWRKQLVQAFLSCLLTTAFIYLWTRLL
Sequence of Induced myeloid leukemia cell differentiation protein Mcl-1 (Q07820 whole entry): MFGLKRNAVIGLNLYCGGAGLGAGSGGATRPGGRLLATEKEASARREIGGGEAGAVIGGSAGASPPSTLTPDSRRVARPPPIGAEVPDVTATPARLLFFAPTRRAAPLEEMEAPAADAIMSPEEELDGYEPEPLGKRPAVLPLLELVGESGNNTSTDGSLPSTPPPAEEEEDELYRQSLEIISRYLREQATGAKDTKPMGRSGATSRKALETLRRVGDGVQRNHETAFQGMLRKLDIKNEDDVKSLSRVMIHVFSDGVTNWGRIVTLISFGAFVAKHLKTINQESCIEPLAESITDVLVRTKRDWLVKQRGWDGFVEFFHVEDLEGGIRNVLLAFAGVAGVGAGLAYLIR
Sequence of Mitogen-activated protein kinase 10 (P53779 whole entry): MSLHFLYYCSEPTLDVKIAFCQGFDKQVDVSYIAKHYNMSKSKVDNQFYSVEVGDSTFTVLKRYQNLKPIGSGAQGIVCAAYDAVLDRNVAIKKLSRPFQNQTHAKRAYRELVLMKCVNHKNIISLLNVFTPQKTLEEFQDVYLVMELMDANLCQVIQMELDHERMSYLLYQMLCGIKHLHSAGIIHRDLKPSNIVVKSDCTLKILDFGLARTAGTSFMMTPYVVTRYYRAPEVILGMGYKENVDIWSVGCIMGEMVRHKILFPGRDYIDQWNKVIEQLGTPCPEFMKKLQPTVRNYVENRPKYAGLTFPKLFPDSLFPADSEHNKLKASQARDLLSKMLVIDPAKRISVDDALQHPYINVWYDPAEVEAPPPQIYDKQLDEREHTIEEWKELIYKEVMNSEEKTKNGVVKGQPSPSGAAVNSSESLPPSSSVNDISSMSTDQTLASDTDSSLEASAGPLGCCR

For the molecule `COc1cc(-c2noc(C)c2/C=C/c2ccc(N)cc2)cc(OC)c1OC`, the EC50 in test [1] is < 0.1 µM (active); in the test “cells”, 0.277 µM (active); in the test on BJ [2], 0.344 µM (active); in test [3], < 0.1 µM (active); in test [4], 0.362 µM (active); in test [5], 0.509 µM (active). Also, the EC50 with BJ [7] was 0.469 µM (inconclusive); in the test with BJ [8], 0.38 µM (inconclusive); in test [9] it was < 0.1 µM (active); in test [10], 0.335 µM (active). Moreover, the IC50 in [6] is 0.964 µM (active).

Take `CC(=O)c1sc2nc(SCC(=O)N3CCCCC3)[nH]c(=O)c2c1C`: the IC50 on Estrogen receptor beta is 14.6 µM (active); at Bcl-2-like protein 10, > 100 µM (inactive); in [14], > 93.1 µM (not active). Besides, the EC50 in test [11] was > 79.4 µM (not active); in test [12], > 79.4 µM (inactive); in [13], > 79.4 µM (not active).

For the molecule `O=C(O[C@@H]1OC2COC(=O)c3cc(O)c(O)c(O)c3-c3c(cc(O)c(O)c3O)C(=O)O[C@@H]([C@H]1O)[C@@H]2O)c1cc(O)c(O)c(O)c1`, the IC50 at Troponin, cardiac muscle was 0.677 µM (active); in test [15] it was 4.48 µM (active); in [16], 4.2 µM (active); in [17], > 50 µM (not active).

For `CCCOc1ccc(-c2nc(OC)c3ccccc3n2)cc1`, the EC50 is > 500 µM (not active) in the test with Streptococcus [18]; > 500 µM (not active) in the test on Streptococcus [19]; 6.02 µM (active) at Streptokinase A [20]; 17.9 µM (active) in [21]; > 150 µM (not active) in the test on Streptococcus [22]; 3.83 µM (active) at Streptokinase A [23]. Besides, the EC50 in [24] is 4.03 µM (active).
